Publication PMC10525132, “Potent Antioxidant and Anti-Tyrosinase Activity of Butein and Homobutein Probed by Molecular Kinetic and Mechanistic Studies” (Antioxidants, 2023)

Assays:
mTYR = mTYR (Agaricus bisporus, UniProt C7FF04); assay: Stability toward air and mTYR, decay of concentration by UV-Vis; details: air-saturated PBS pH 6.8, 30 °C, 7 U/ml mTYR, 0.05 and 0.1 mM
[1] = biological target: T1, mushroom tyrosinase (mTYR) (Agaricus bisporus, UniProt C7FF04); details: cited from earlier work
T1 construct: purchased Sigma-Aldrich (Milan, Italy)
T1 sequence (C7FF04 1-392): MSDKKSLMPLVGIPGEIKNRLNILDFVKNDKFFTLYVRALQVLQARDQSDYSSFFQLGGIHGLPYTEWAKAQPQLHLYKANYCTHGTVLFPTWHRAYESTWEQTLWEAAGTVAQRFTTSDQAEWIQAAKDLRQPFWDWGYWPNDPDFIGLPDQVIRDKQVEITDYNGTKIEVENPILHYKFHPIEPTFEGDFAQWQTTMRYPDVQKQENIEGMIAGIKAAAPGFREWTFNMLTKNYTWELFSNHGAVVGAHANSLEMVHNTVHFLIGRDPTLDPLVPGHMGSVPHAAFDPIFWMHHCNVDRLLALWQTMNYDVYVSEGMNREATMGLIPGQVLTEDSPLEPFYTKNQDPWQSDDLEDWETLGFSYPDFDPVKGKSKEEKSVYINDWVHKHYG

[2] = biological target: T1, mushroom tyrosinase (mTYR); details: previous report, cited from earlier work
[3] = Radical equilibration EPR (ReqEPR) for the O-H bond dissociation enthalpy; format: physicochemical
Experimental: Deoxygenated acetonitrile solutions containing the phenols (0.01–0.001 M) and di-tert-butyl peroxide (10% v/v) were sealed under nitrogen in a 2 mm ID suprasil quartz EPR tube. The sample was inserted in the thermostatted (30 °C) cavity of an X-band EPR spectrometer and photolyzed with a mercury–xenon lamp (240–400 nm, max 4500 mW/cm^2). Spectra were recorded with the following settings: modulation amplitude 0.2–1 Gauss, sweep width 30–60 Gauss, modulation frequency 100 kHz, frequency 9.76 GHz, sweep time 60 s, and microwave power 0.1–1 mW. Measured g-factors were corrected with respect to that of TEMPO (g = 2.0064) and of DPPH radical. In ReqEPR experiments, mixtures of TBP and butein were analyzed to obtain the molar ratio of the two equilibrating radicals by comparison of the digitized experimental spectra with computer-simulated ones, as previously described. This afforded the equilibrium constant, Keq. Different irradiation power levels (20% to 100%) and different ratios of the two phenols were tested to guarantee that the two species were at equilibrium.
The reactivity of (phenolic) chain-breaking antioxidants toward formal hydrogen atom transfer (HAT) to a radical such as peroxyl radicals is dictated by the strength of the phenolic O-H bond being broken, i.e., by its bond dissociation enthalpy (BDEOH), and by the steric hindrance in ortho position to the reactive OH [40, 41]. Indeed, there are well-established Evans–Polanyi linear free-energy correlations between the BDEOH and the inhibition rate constant kinh for phenolic antioxidants. One very accurate method to measure the BDEOH is via radical equilibration experiments using electron paramagnetic resonance spectroscopy, the ReqEPR technique. It consists of photolyzing the “unknown” phenol to be studied (^UPhOH) in a mixture with a reference phenol (^RPhOH) in the cavity of the EPR spectrometer with the addition of a peroxide (e.g., di-tert-butylperoxide) as a photochemical initiator. Analysis and deconvolution of the EPR spectrum containing both equilibrating radical species affords the equilibrium constant Keq (see Figure 3), which in turn allows determining the ∆G° of equilibration. Since it has been shown that ∆S° is negligible for such an equilibrium, this affords the BDEOH of ^UPhOH if the value is known for ^RPhOH (Figure 3A).
To convert this value into a gas-phase equivalent, it is necessary to correct for the effect of the solvent, which increases the apparent BDE value by H-bonding to the phenols (see Figure 3B). Such solvent effects can be accounted for quantitatively, as detailed in Figure 3B, by using Abraham’s solvatochromic parameters α2^H and β2^H, describing, respectively, the H-bond donating ability of the phenol and the H-bond accepting ability of the solvent. Considering that the solvent effect is negligible for TBP due to steric hindrance by the t-butyl groups in ortho [40], that α2^H for catechol is 0.73 and β2^H for acetonitrile is 0.39 [42], the DBE measured in acetonitrile must be downscaled by −1.4 kcal/mol to afford BDEOH = 78.4 ± 0.2 kcal/mol for butein in apolar solvent/gas-phase.

Chain of mTYR (C7FF04 1-392): as above

Compound | behaviour as substrate of mTYR (mTYR) | effect toward diphenolase reaction (reported) [1] | diphenolase inhibition (reported effect) ([1]; even at concentrations > 100 µM) | Ki ([2]; monophenolase, competitive) [µM] | inhibition mode, monophenolase [2] | BDEOH ([3]; ReqEPR vs TBP, corrected for solvent to apolar solvent/gas-phase) [kcal/mol] | BDEOH ([3]; ReqEPR vs TBP, corrected for solvent to apolar solvent/gas-phase, listed as butein) [kcal/mol] | BDEOH higher compared to α-TOH ([3]; difference to α-TOH) [kcal/mol] | Keq (radical equilibration with TBP) ([3]; in acetonitrile at 298 K) | BDEOH ([3]; in acetonitrile at 298 K, not corrected for solvent) [kcal/mol] | BDEOH of any OH group in A ring ([3]; suggested from structure) [kcal/mol] | BDEOH ([3]; estimated from the value for butein by additive contribution of substituents) | BDEOH ([3]; estimated from the value for butein by additive contribution of substituents, listed as HB) [kcal/mol] | BDEOH ([3]; estimated from the value for butein by additive contribution of substituents, listed as homobutein)
O=C(/C=C/c1ccc(O)c(O)c1)c1ccc(O)cc1O [Butein, (E)-1-(2,4-dihydroxyphenyl)-3-(3,4-dihydroxyphenyl)prop-2-en-1-one] | not a significant substrate | ineffective | poorly effective | 1410 | competitive | 78.4 ± 0.2 | 78.4 | 1.3 | 1.64 ± 0.63 | 79.8 ± 0.2 | > 86 |  |  | 
COc1cc(/C=C/C(=O)c2ccc(O)cc2O)ccc1O [Homobutein, (E)-1-(2,4-dihydroxyphenyl)-3-(4-hydroxy-3-methoxyphenyl)prop-2-en-1-one] | not a significant substrate |  |  |  |  |  |  |  |  |  |  | 82.6 ^1 kcal/mol | 82.6 | ~ 82.6 kcal/mol
